Experimental data reported in PubChem BioAssay (NCI).
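GI50 marks 50% less growth. TGI: concentration producing complete growth inhibition.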

Tests used:
Experiment in all cases: NCI tumour cell line growth inhibition, 384-well format
786-0 renal = tested on: 786-0 renal
A498 renal = tested on: A498 renal
A549 NSCLC = tested on: A549 NSCLC
ACHN renal = tested on: ACHN renal
BT-549 breast = tested on: BT-549 breast
CAKI-1 renal = tested on: CAKI-1 renal
CCRF-CEM leukemia = tested on: CCRF-CEM leukemia
COLO 205 colon = tested on: COLO 205 colon
DU-145 prostate = tested on: DU-145 prostate
EKVX NSCLC = tested on: EKVX NSCLC
HCC-2998 colon = tested on: HCC-2998 colon
HCT-116 colon = tested on: HCT-116 colon
HCT-15 colon = tested on: HCT-15 colon
HL-60(TB) leukemia = tested on: HL-60(TB) leukemia
HOP-62 NSCLC = tested on: HOP-62 NSCLC
HOP-92 NSCLC = tested on: HOP-92 NSCLC
HS 578T breast = tested on: HS 578T breast
HT29 colon = tested on: HT29 colon
IGROV1 ovarian = tested on: IGROV1 ovarian
K-562 leukemia = tested on: K-562 leukemia
KM12 colon = tested on: KM12 colon
LOX IMVI melanoma = tested on: LOX IMVI melanoma
M14 melanoma = tested on: M14 melanoma
MALME-3M melanoma = tested on: MALME-3M melanoma
MDA-MB-231 breast = tested on: MDA-MB-231 breast
MDA-MB-435 melanoma = tested on: MDA-MB-435 melanoma
MDA-MB-468 breast = tested on: MDA-MB-468 breast
MOLT-4 leukemia = tested on: MOLT-4 leukemia
NCI-H226 lung = tested on: NCI-H226 lung
NCI-H23 lung = tested on: NCI-H23 lung
NCI-H322M lung = tested on: NCI-H322M lung
NCI-H460 NSCLC = tested on: NCI-H460 NSCLC
NCI-H522 lung = tested on: NCI-H522 lung
NCI/ADR-RES ovarian = tested on: NCI/ADR-RES ovarian
OVCAR-3 ovarian = tested on: OVCAR-3 ovarian
OVCAR-4 ovarian = tested on: OVCAR-4 ovarian
OVCAR-5 ovarian = tested on: OVCAR-5 ovarian
OVCAR-8 ovarian = tested on: OVCAR-8 ovarian
PC-3 prostate = tested on: PC-3 prostate
RPMI-8226 leukemia = tested on: RPMI-8226 leukemia
RXF 393 renal = tested on: RXF 393 renal
SF-268 CNS = tested on: SF-268 CNS
SF-295 CNS = tested on: SF-295 CNS
SF-539 CNS = tested on: SF-539 CNS
SK-MEL-2 melanoma = tested on: SK-MEL-2 melanoma
SK-MEL-28 melanoma = tested on: SK-MEL-28 melanoma
SK-MEL-5 melanoma = tested on: SK-MEL-5 melanoma
SK-OV-3 ovarian = tested on: SK-OV-3 ovarian
SN12C renal = tested on: SN12C renal
SNB-19 CNS = tested on: SNB-19 CNS
SNB-75 CNS = tested on: SNB-75 CNS
SR leukemia = tested on: SR leukemia
SW-620 colon = tested on: SW-620 colon
T-47D breast = tested on: T-47D breast
TK-10 renal = tested on: TK-10 renal
U251 glioblastoma = tested on: U251 glioblastoma
UACC-257 melanoma = tested on: UACC-257 melanoma
UACC-62 melanoma = tested on: UACC-62 melanoma
UO-31 renal = tested on: UO-31 renal

CC(=O)c1ccc2c(c1)c1cc(C(C)=O)ccc1n2CCNC(C)C
GI50 ([…]-0 renal): 228 nM
TGI (786-0 renal): 855 nM
GI50 (A498 renal): 182 nM
TGI (A498 renal): 329 nM
GI50 (A549 NSCLC): 189 nM
TGI (A549 NSCLC): 353 nM
GI50 (ACHN renal): 101 nM
TGI (ACHN renal): 245 nM
GI50 (BT-549 breast): 348 nM
TGI (BT-549 breast): 932 nM
GI50 (CAKI-1 renal): 150 nM
TGI (CAKI-1 renal): 317 nM
GI50 (CCRF-CEM leukemia): 148 nM
TGI (CCRF-CEM leukemia): 299 nM
GI50 (COLO 205 colon): 164 nM
TGI (COLO 205 colon): 311 nM
GI50 (DU-145 prostate): 344 nM
TGI (DU-145 prostate): 1430 nM
GI50 (EKVX NSCLC): 409 nM
TGI (EKVX NSCLC): 931 nM
GI50 (HCC-2998 colon): 311 nM
TGI (HCC-2998 colon): 811 nM
GI50 (HCT-116 colon): 199 nM
TGI (HCT-116 colon): 731 nM
GI50 (HCT-15 colon): 206 nM
TGI (HCT-15 colon): 464 nM
GI50 (HL-60(TB) leukemia): 201 nM
TGI (HL-60(TB) leukemia): 349 nM
GI50 (HOP-62 NSCLC): 201 nM
TGI (HOP-62 NSCLC): 755 nM
GI50 (HOP-92 NSCLC): 225 nM
TGI (HOP-92 NSCLC): 656 nM
GI50 (HS 578T breast): 195 nM
TGI (HS 578T breast): 376 nM
GI50 (HT29 colon): 206 nM
TGI (HT29 colon): 1030 nM
GI50 (IGROV1 ovarian): 480 nM
TGI (IGROV1 ovarian): 15100 nM
GI50 (K-562 leukemia): 178 nM
TGI (K-562 leukemia): 405 nM
GI50 (KM12 colon): 286 nM
TGI (KM12 colon): 2270 nM
GI50 (LOX IMVI melanoma): 192 nM
TGI (LOX IMVI melanoma): 338 nM
GI50 (M14 melanoma): 259 nM
TGI (M14 melanoma): 665 nM
GI50 (MALME-3M melanoma): 172 nM
TGI (MALME-3M melanoma): 319 nM
GI50 (MDA-MB-231 breast): 194 nM
TGI (MDA-MB-231 breast): 446 nM
GI50 (MDA-MB-435 melanoma): 320 nM
TGI (MDA-MB-435 melanoma): 922 nM
GI50 (MDA-MB-468 breast): 164 nM
TGI (MDA-MB-468 breast): 306 nM
GI50 (MOLT-4 leukemia): 34.6 nM
TGI (MOLT-4 leukemia): 101 nM
GI50 (NCI-H226 lung): 153 nM
TGI (NCI-H226 lung): 308 nM
GI50 (NCI-H23 lung): 193 nM
TGI (NCI-H23 lung): 461 nM
GI50 (NCI-H322M lung): 234 nM
TGI (NCI-H322M lung): 543 nM
GI50 (NCI-H460 NSCLC): 164 nM
TGI (NCI-H460 NSCLC): 316 nM
GI50 (NCI-H522 lung): 152 nM
TGI (NCI-H522 lung): 307 nM
GI50 (NCI/ADR-RES ovarian): 204 nM
TGI (NCI/ADR-RES ovarian): 472 nM
GI50 (OVCAR-3 ovarian): 273 nM
TGI (OVCAR-3 ovarian): 969 nM
GI50 (OVCAR-4 ovarian): 244 nM
TGI (OVCAR-4 ovarian): 637 nM
GI50 (OVCAR-5 ovarian): 433 nM
TGI (OVCAR-5 ovarian): 14300 nM
GI50 (OVCAR-8 ovarian): 276 nM
TGI (OVCAR-8 ovarian): 1320 nM
GI50 (PC-3 prostate): 279 nM
TGI (PC-3 prostate): 782 nM
GI50 (RPMI-8226 leukemia): 164 nM
TGI (RPMI-8226 leukemia): 303 nM
GI50 (RXF 393 renal): 170 nM
TGI (RXF 393 renal): 529 nM
GI50 (SF-268 CNS): 222 nM
TGI (SF-268 CNS): 618 nM
GI50 (SF-295 CNS): 309 nM
TGI (SF-295 CNS): 1170 nM
GI50 (SF-539 CNS): 228 nM
TGI (SF-539 CNS): 669 nM
GI50 (SK-MEL-2 melanoma): 263 nM
TGI (SK-MEL-2 melanoma): 478 nM
GI50 (SK-MEL-28 melanoma): 207 nM
TGI (SK-MEL-28 melanoma): 435 nM
GI50 (SK-MEL-5 melanoma): 178 nM
TGI (SK-MEL-5 melanoma): 322 nM
GI50 (SK-OV-3 ovarian): 300 nM
TGI (SK-OV-3 ovarian): 1230 nM
GI50 (SN12C renal): 221 nM
TGI (SN12C renal): 728 nM
GI50 (SNB-19 CNS): 279 nM
TGI (SNB-19 CNS): 2650 nM
GI50 (SNB-75 CNS): 264 nM
TGI (SNB-75 CNS): 743 nM
GI50 (SR leukemia): 33.8 nM
TGI (SR leukemia): 86.6 nM
GI50 (SW-620 colon): 207 nM
TGI (SW-620 colon): 736 nM
GI50 (T-47D breast): 258 nM
TGI (T-47D breast): 619 nM
GI50 (TK-10 renal): 472 nM
TGI (TK-10 renal): 11700 nM
GI50 (U251 glioblastoma): 248 nM
TGI (U251 glioblastoma): 715 nM
GI50 (UACC-257 melanoma): 182 nM
TGI (UACC-257 melanoma): 351 nM
GI50 (UACC-62 melanoma): 170 nM
TGI (UACC-62 melanoma): 313 nM
GI50 (UO-31 renal): 168 nM
TGI (UO-31 renal): 308 nM
